From patent US10774046B2, “Inhibitors for the treatment of cancer and related methods” (UNIVERSITY OF LOUISVILLE RESEARCH FOUNDATION, INC., priority 2017, dated 2020)

Legend:
H460 cells [1] = assay: intracellular ATP measurement; assay type: cell-based, human
Method: H460 cells were exposed to the indicated concentrations of MPN-2 and ATP production was examined. Cells were lysed and intracellular ATP determined as described previously. For example, cells were washed (while still adherent) with cold PBS 1×, lysed with Passive Lysis Buffer (1×; Molecular Probes, Invitrogen) added directly to the plates, and immediately harvested by scraping. The lysates were flash frozen (to −80° C.) and thawed (to 37° C.) once to accomplish complete lysis and then centrifuged (at 4° C.) for 30 seconds to clear the lysates. Intracellular ATP levels were determined using a bioluminescence assay (Molecular Probes), utilizing recombinant firefly luciferase and its substrate, D-luciferin. The luminescence was read in a TD-20/20 luminometer (Turner Designs) at 560 nm. The ATP values were calculated using an ATP standard curve. The protein concentrations of the lysates were estimated using the BCA assay (Pierce Biotechnology) and ATP was expressed as pmol/μg protein. All data are expressed as the mean±SD of three experiments. Statistical significance was assessed by the two-sample t test (independent variable).

H460 cells [2] = assay: F2,6BP measurement in cells (coupled enzyme reaction); assay type: cell-based, human
Method: Cells or tissues were prepared as previously described and F2,6BP content measured using a coupled enzyme reaction following a modification of the method of Van Schaftingen et al (VAN SCHAFTINGEN E et al. “A kinetic study of pyrophosphate:fructose-6-phosphate phosphotransferase from potato tubers. Application to a microassay of fructose 2,6-bisphosphate” Eur J Biochem (1982) Vol. 129, No. 1, pp. 191-195) and normalized to total cellular protein measured by the bicinchoninic acid assay (BCA, Thermo Scientific). For example, H460 cells were exposed to the indicated concentrations of MPN-2. In order to measure F2,6BP, cells were harvested, washed with PBS, lysed in NaOH/Tris acetate by heating at 80° C. and lysates neutralized to pH 7.2. F2,6BP content was measured using a coupled enzyme reaction following a modified method of Van Schaftingen et al (VAN SCHAFTINGEN E et al. “A kinetic study of pyrophosphate:fructose-6-phosphate phosphotransferase from potato tubers. Application to a microassay of fructose 2,6-bisphosphate” Eur J Biochem (1982) Vol. 129, No. 1, pp. 191-195). The F2,6BP concentration was normalized to total cellular protein measured by the bicinchoninic acid assay (BCA, Thermo Scientific). All data are expressed as the mean±SD of three experiments. Statistical significance was assessed by the two-sample t test (independent variable).
Method: In order to measure F26BP, H460 cells were exposed to increasing concentrations of the agents and were harvested, washed with PBS, lysed in NaOH/Tris acetate by heating at 80° C. and lysates neutralized to pH 7.2. F26BP content was measured using a coupled enzyme reaction following a modified method of Van Schaftingen et al. (Eur J Biochem. 1982; 129(1):191-195). The F26BP concentration was normalized to total cellular protein measured by the bicinchoninic acid assay (BCA, Thermo Scientific).

PFK-1 = PFK-1 kinase activity; assay type: biochemical; conditions: 10 μM
H460 cells [3] = assay: apoptosis by flow cytometry (annexin V / propidium iodide); assay type: cell-based, human; conditions: H460, 10 μM 5MPN
Method: To measure apoptosis, cells were stained with annexin V and propidium iodide and examined as previously described. For example, H460 cells were exposed to increasing concentrations of the PFKFB4 inhibitor (MPN-2), the PFKFB3 inhibitor PFK15 (Tocris) or both and viable cells were counted at 24, 48 and 72 hours. DMSO used as vehicle. For cell cycle experiments, cells were detached, washed with cold PBS and fixed in 70% ethanol (4° C., 30 minutes). The cells then were pelleted by centrifugation, resuspended in PBS containing PI and RNase A, incubated at 37° C. in the dark for 30 minutes and analyzed by flow cytometry (BD FACSCalibur). Data were analyzed using FlowJo software (TREE STAR Inc.). Results were calculated as the mean±SD of three experiments. The effects (Fa values) of the series of concentrations of MPN-2 and PFK-15 were examined individually and in combination at a constant ratio of 1:1.

[4] = tested on: H460 human lung adenocarcinoma xenografts; assay: H460 xenograft growth in athymic mice; assay type: in vivo, BALB/c athymic mice
LLC tumors = assay: tumor glucose uptake by FDG micro-PET; assay type: in vivo, C57BL/6 mice
Method: At the end of the experiment, animals were euthanized, tumors removed and sections fixed in 10% formaldehyde for immunohistochemistry or snap-frozen in liquid nitrogen for analyses. Subsets of tumor-bearing mice (n=3) were injected i.p. with 2-[^18F]-fluoro-2-deoxyglucose (FDG, 150 μCi, 100 μl) and imaged by micro-positron emission tomography as previously described. Regions of interest in the tumors and cerebellum were quantified in quadruplicate and expressed as the mean±SD of the tumor:cerebellar FDG uptake ratio. Animal experiments were approved by the University of Louisville Institutional Animal Care and Use Committee.
Method: FDG-PET was conducted on tumor-bearing mice to determine acute effects of Formula (VIII) on glucose uptake. C57BL/6 mice (Charles River) with subcutaneous Lewis lung carcinoma tumors were injected intraperitoneally with 100 μCi of ^18F-fluoro-2-deoxy-glucose under isoflurane anesthesia and subjected to a 15-minute static scan 45 minutes after tracer injection at baseline. […] Tumor/cerebellum ROI (regions of interest) were quantified, representative sagittal cuts from mice are shown with arrows showing the tumors on the animals. (* signifies statistical significance).

cancer cells = assay: intracellular ATP measurement; assay type: cell-based; conditions: increasing concentrations
Method: Method: To measure ATP, cells were washed (while still adherent) with cold PBS, lysed with Passive Lysis Buffer (Molecular Probes, Invitrogen) added directly to the plates, and immediately harvested by scraping. The lysates were flash frozen (to −80° C.) and thawed (to 37° C.) once to accomplish complete lysis and then centrifuged to clear the lysates. Intracellular ATP levels were determined using a bioluminescence assay (Molecular Probes), utilizing luciferase and its substrate, D-luciferin and ATP values were calculated using an ATP standard curve. The ATP concentration was normalized to protein concentration that was estimated using the BCA assay.

## 5-[(8-methoxy-2-methylquinolin-1-ium-4-yl)amino]pentyl nitrate [MPN-2]
H460 cells [1]; H460, indicated concentrations of MPN-2, 48 hours
  ATP production: decreased
H460 cells [2]; H460, indicated concentrations of MPN-2
  F2,6BP production: inhibited

## COc1cccc2c(NCCCCCO[N+](=O)[O-])ccnc12 [5MPN, 5-[(8-methoxyquinolin-4-yl)amino]pentyl nitrate]
PFK-1
  inhibition of kinase activity: did not inhibit
H460 cells [1]; H460, 10 μM 5MPN, 6-72 hours
  ATP: reduced
H460 cells [3]
  apoptotic cells: increase in apoptotic cells
[4]; 5MPN 120 mg/kg oral daily
  tumor growth: suppressed the growth
[4]; H460-bearing athymic mice, 120 mg/kg oral daily
  body weight: without affecting body weight
LLC tumors; 5MPN 120 mg/kg by gavage, once
  2-[18F]-fluoro-2-deoxyglucose uptake: reduction
H460 cells [2]; H460, 10 μM 5MPN, 6-72 hours
  intracellular concentration of F2,6BP: reduced
H460 cells [2]; H460 transfected with PFKFB4, 10 μM 5MPN, 24 hours
  effect of overexpression of PFKFB4 on reduction in F2,6BP: reversed

## COc1cccc2c(NCCCCCNC(=O)C(F)(F)F)ccnc12 [Formula (VIII), 2,2,2-trifluoro-N-(5-((8-methoxyquinolin-4-yl)amino)pentyl)acetamide]
Cancer cells
  production of ATP: dose-dependent decrease
LLC tumors; 40 mg/kg PO x1, PET after 60 minutes
  tumor FDG uptake: decrease in tumor FDG uptake compared with vehicle
